Assay results: patent publication US5726184A, “Tetralin compounds with improved MDR activity” (Vertex Pharmaceuticals Incorporated, priority 1995, dated 1998)
Like-named read-outs stand apart in the source and are kept apart here. One block for each molecule: values may come before it.

Key:
[1] = system: L1210vDOX; assay: Reversal of MDR in L1210vDOX (MDR sensitization assay, doxorubicin with or without MDR inhibitor); assay type: cell-based, mouse; conditions: for IC50: 3 days
[2] = system: HL60/ADR cells; assay: Reversal of MRP-mediated MDR in HL60/ADR cells (doxorubicin with or without MDR inhibitor); assay type: cell-based; conditions: for Fold reversal (IC50 doxorubicin alone / IC50 doxorubicin + MDR inhibitor): HL60/ADR
Protocol: We plated HL60/ADR cells in 96 well microtiter plates (4×10^4 cells/well). The cells were then exposed to various concentrations of doxorubicin (50 nM to 10 μM) in the presence or absence of various compounds of this invention at various concentrations (0.5-10 μM). After culturing the cells for 3 days, their viability was quantitated using the XTT dye method to assess mitochondrial function. […] IC50 values are expressed in nM. In all assays the intrinsic antiproliferative or cytotoxicity activity of the MDR inhibitors was also determined for HL60/ADR cells.

[3] = IC50 of doxorubicin in presence of 0.5 μM Cpd, read-out: IC50 DOX + 0.5 μM Cpd
[4] = IC50 of doxorubicin in presence of 1.0 μM Cpd, read-out: IC50 DOX + 1.0 μM Cpd
[5] = IC50 of doxorubicin in presence of 2.5 μM Cpd, read-out: IC50 DOX + 2.5 μM Cpd

Compound: COc1cc(C(=O)C(=O)N2CCCC[C@H]2C(=O)N(Cc2ccccc2)C2CCCc3ccc(OCc4ccncc4)cc32)cc(OC)c1OC (single isomer, unassigned) [Compound 15]
MDR ratio (IC50 Dox / IC50 Dox+Inhibitor) ([1]; MDR ratio at 0.5 μM Cpd): 6.1
MDR ratio (IC50 Dox / IC50 Dox+Inhibitor) ([1]; MDR ratio at 1.0 μM Cpd): > 8.5
MDR ratio (IC50 Dox / IC50 Dox+Inhibitor) ([1]; MDR ratio at 2.5 μM Cpd): > 8.5

Fold reversal (IC50 doxorubicin alone / IC50 doxorubicin + MDR inhibitor) ([2]; ratio at 0.5 μM Cpd): 2.3
Fold reversal (IC50 doxorubicin alone / IC50 doxorubicin + MDR inhibitor) ([2]; ratio at 1.0 μM Cpd): 39
Fold reversal (IC50 doxorubicin alone / IC50 doxorubicin + MDR inhibitor) ([2]; ratio at 2.5 μM Cpd): > 60
Compound: COc1cc(C(=O)C(=O)N2CCCC[C@H]2C(=O)N(Cc2ccccc2)C2CCCc3ccc(OCc4ccncc4)cc32)cc(OC)c1OC (single isomer, unassigned) [Compound 16]
MDR ratio (IC50 Dox / IC50 Dox+Inhibitor) ([1]; MDR ratio at 0.5 μM Cpd): 2.2
MDR ratio (IC50 Dox / IC50 Dox+Inhibitor) ([1]; MDR ratio at 1.0 μM Cpd): 7.1
MDR ratio (IC50 Dox / IC50 Dox+Inhibitor) ([1]; MDR ratio at 2.5 μM Cpd): > 8.5

Compound: CCCOc1cc2c(c(OCCC)c1C)CC[C@@H](Cc1cccnc1)[C@H]2OC(=O)[C@@H]1CCCCN1C(=O)C(=O)c1cc(OC)c(OC)c(OC)c1 (single isomer, unassigned) [Compound 29B]
MDR ratio (IC50 Dox / IC50 Dox+Inhibitor) ([1]; MDR ratio at 0.5 μM Cpd): 1.8
MDR ratio (IC50 Dox / IC50 Dox+Inhibitor) ([1]; MDR ratio at 1.0 μM Cpd): 3.7
MDR ratio (IC50 Dox / IC50 Dox+Inhibitor) ([1]; MDR ratio at 2.5 μM Cpd): > 7.0

Compound: CCCOc1cc2c(c(OCCC)c1C)CC[C@H](Cc1cccnc1)[C@H]2OC(=O)[C@@H]1CCCCN1C(=O)C(=O)c1cc(OC)c(OC)c(OC)c1 (single isomer, unassigned) [Compound 30A]
MDR ratio (IC50 Dox / IC50 Dox+Inhibitor) ([1]; MDR ratio at 0.5 μM Cpd): 1.4
MDR ratio (IC50 Dox / IC50 Dox+Inhibitor) ([1]; MDR ratio at 1.0 μM Cpd): 2.3
MDR ratio (IC50 Dox / IC50 Dox+Inhibitor) ([1]; MDR ratio at 2.5 μM Cpd): > 7.0

Compound: CCCOc1cc2c(c(OCCC)c1C)CC[C@@H](Cc1cccnc1)[C@@H]2OC(=O)[C@@H]1CCCCN1C(=O)C(=O)c1cc(OC)c(OC)c(OC)c1 (single isomer, unassigned) [Compound 30B]
MDR ratio (IC50 Dox / IC50 Dox+Inhibitor) ([1]; MDR ratio at 0.5 μM Cpd): 1.4
MDR ratio (IC50 Dox / IC50 Dox+Inhibitor) ([1]; MDR ratio at 1.0 μM Cpd): 2.0
MDR ratio (IC50 Dox / IC50 Dox+Inhibitor) ([1]; MDR ratio at 2.5 μM Cpd): > 7.0

Fold reversal (IC50 doxorubicin alone / IC50 doxorubicin + MDR inhibitor) ([2]; ratio at 0.5 μM Cpd): 8.8
Fold reversal (IC50 doxorubicin alone / IC50 doxorubicin + MDR inhibitor) ([2]; ratio at 1.0 μM Cpd): 6.4
Fold reversal (IC50 doxorubicin alone / IC50 doxorubicin + MDR inhibitor) ([2]; ratio at 2.5 μM Cpd): 39
Compound: COc1cc(C(=O)C(=O)N2CCCC[C@H]2C(=O)O[C@H]2CCCc3ccc(OCc4ccncc4)cc32)cc(OC)c1OC [Compound 6, 1-(2-Oxo-2-(3,4,5-trimethoxyphenyl)-acetyl)-piperidine-2(S)-carboxylic acid 2-((7-pyridin-4-ylmethoxy)-1,2,3,4-tetrahydronaphthalen-1(S)-yl) ester]
MDR ratio (IC50 Dox / IC50 Dox+Inhibitor) ([1]; MDR ratio at 0.5 μM Cpd): 4.8
MDR ratio (IC50 Dox / IC50 Dox+Inhibitor) ([1]; MDR ratio at 1.0 μM Cpd): 6.3
MDR ratio (IC50 Dox / IC50 Dox+Inhibitor) ([1]; MDR ratio at 2.5 μM Cpd): 9.5

Compound: COc1cc(C(=O)C(=O)N2CCCC[C@H]2C(=O)O[C@@H]2CCCc3ccc(OCc4ccncc4)cc32)cc(OC)c1OC [Compound 7, 1-(2 -Oxo-2(3,4,5-trimethoxyphenyl)-acetyl)-piperidine-2(S)-carboxylic acid 2-((7-pyridin-4-ylmethoxy)-1,2,3,4-tetrahydronaphthalen-1(R)-yl) ester]
MDR ratio (IC50 Dox / IC50 Dox+Inhibitor) ([1]; MDR ratio at 0.5 μM Cpd): 23.1
MDR ratio (IC50 Dox / IC50 Dox+Inhibitor) ([1]; MDR ratio at 1.0 μM Cpd): 4.8
MDR ratio (IC50 Dox / IC50 Dox+Inhibitor) ([1]; MDR ratio at 2.5 μM Cpd): 9.5

Compound: COc1cc(C(=O)C(=O)N2CCCC[C@H]2C(=O)OC2CCCc3c(OCc4ccncc4)cccc32)cc(OC)c1OC (stereo partly drawn) [Compound 9, 1-(2-Oxo-2-(3,4,5-trimethoxyphenyl)-acetyl)-piperidine-2(S)-carboxylic acid 2-((5-pyridin-4-ylmethoxy)-1,2,3,4-tetrahydronaphthalen-1-yl) ester]
IC50 [1, 3]: 750 nM
IC50 [1, 4]: 350 nM
IC50 [1, 5]: 175 nM
MDR ratio (IC50 Dox / IC50 Dox+Inhibitor) ([1]; MDR ratio at 0.5 μM Cpd): 6.4
MDR ratio (IC50 Dox / IC50 Dox+Inhibitor) ([1]; MDR ratio at 1.0 μM Cpd): 13.7
MDR ratio (IC50 Dox / IC50 Dox+Inhibitor) ([1]; MDR ratio at 2.5 μM Cpd): 22.8

Compound: COc1cc(C(=O)C(=O)N2CCCC[C@H]2C(=O)N[C@@H]2CCCc3ccc(OCc4ccncc4)cc32)cc(OC)c1OC [Compound 11A, 1-(2-Oxo-2-(3,4,5-trimethoxyphenyl)-acetyl)-piperidine-2(S)-carboxylic acid 2-((7-pyridin-4-ylmethoxy)-1,2,3,4-tetrahydronaphthalen-1(R)-yl) amide]
IC50 [1, 3]: 650 nM
IC50 [1, 4]: 350 nM
IC50 [1, 5]: 175 nM
MDR ratio (IC50 Dox / IC50 Dox+Inhibitor) ([1]; MDR ratio at 0.5 μM Cpd): 1.1
MDR ratio (IC50 Dox / IC50 Dox+Inhibitor) ([1]; MDR ratio at 1.0 μM Cpd): 2.0
MDR ratio (IC50 Dox / IC50 Dox+Inhibitor) ([1]; MDR ratio at 2.5 μM Cpd): 4.0

Compound: COc1cc(C(=O)C(=O)N2CCCC[C@H]2C(=O)N[C@H]2CCCc3ccc(OCc4ccncc4)cc32)cc(OC)c1OC [Compound 11B, 1-(2-Oxo-2-(3,4,5-trimethoxyphenyl)-acetyl)-piperidine-2(S)-carboxylic acid 2-((7-pyridin-4-ylmethoxy)-1,2,3,4-tetrahydronaphthalen-1(S)-yl) amide]
IC50 [1, 3]: 400 nM
IC50 [1, 4]: 325 nM
IC50 [1, 5]: 70 nM
MDR ratio (IC50 Dox / IC50 Dox+Inhibitor) ([1]; MDR ratio at 0.5 μM Cpd): 1.8
MDR ratio (IC50 Dox / IC50 Dox+Inhibitor) ([1]; MDR ratio at 1.0 μM Cpd): 2.2
MDR ratio (IC50 Dox / IC50 Dox+Inhibitor) ([1]; MDR ratio at 2.5 μM Cpd): 10.0

Fold reversal (IC50 doxorubicin alone / IC50 doxorubicin + MDR inhibitor) ([2]; ratio at 0.5 μM Cpd): 2.3
Fold reversal (IC50 doxorubicin alone / IC50 doxorubicin + MDR inhibitor) ([2]; ratio at 1.0 μM Cpd): 11.7
Fold reversal (IC50 doxorubicin alone / IC50 doxorubicin + MDR inhibitor) ([2]; ratio at 2.5 μM Cpd): 11.7
Compound: COc1cc(C(=O)C(=O)N2Cc3ccccc3C[C@H]2C(=O)O[C@@H]2CCCc3ccc(OCc4ccncc4)cc32)cc(OC)c1OC [Compound 17, 2-(2-Oxo-2-(3,4,5-trimethoxyphenyl)-acetyl)-1,2,3,4-tetrahydroisoquinoline-3(S)-carboxylic acid 2-((7-pyridin-4-ylmethoxy)-1,2,3,4-tetrahydronaphthalen-1(R)-yl) ester]
MDR ratio (IC50 Dox / IC50 Dox+Inhibitor) ([1]; MDR ratio at 0.5 μM Cpd): 5.6
MDR ratio (IC50 Dox / IC50 Dox+Inhibitor) ([1]; MDR ratio at 1.0 μM Cpd): 8.7
MDR ratio (IC50 Dox / IC50 Dox+Inhibitor) ([1]; MDR ratio at 2.5 μM Cpd): 11.1

Compound: COc1cc(C(=O)C(=O)N2Cc3ccccc3C[C@H]2C(=O)O[C@H]2CCCc3ccc(OCc4ccncc4)cc32)cc(OC)c1OC [Compound 18, 2-(2-Oxo-2-(3,4,5-trimethoxyphenyl)-acetyl)-1,2,3,4-tetrahydroisoquinoline-3(S)-carboxylic acid 2-((7-pyridin-4-ylmethoxy)-1,2,3,4-tetrahydronaphthalen-1(S)-yl) ester]
MDR ratio (IC50 Dox / IC50 Dox+Inhibitor) ([1]; MDR ratio at 0.5 μM Cpd): 3.3
MDR ratio (IC50 Dox / IC50 Dox+Inhibitor) ([1]; MDR ratio at 1.0 μM Cpd): 6.7
MDR ratio (IC50 Dox / IC50 Dox+Inhibitor) ([1]; MDR ratio at 2.5 μM Cpd): 10.0

Compound: COc1cc(C(=O)C(=O)N[C@@H](Cc2ccccc2)C(=O)O[C@@H]2CCCc3ccc(OCc4ccncc4)cc32)cc(OC)c1OC [Compound 19, 3-Benzyl-2(S)-((2-oxo-2-(3,4,5-trimethoxyphenyl-)acetyl)amino) propanoic acid ((7-pyridin-4-ylmethoxy)-1,2,3,4-tetrahydronaphthalen-1(R)-yl) ester]
MDR ratio (IC50 Dox / IC50 Dox+Inhibitor) ([1]; MDR ratio at 0.5 μM Cpd): 1.6
MDR ratio (IC50 Dox / IC50 Dox+Inhibitor) ([1]; MDR ratio at 1.0 μM Cpd): 2.4
MDR ratio (IC50 Dox / IC50 Dox+Inhibitor) ([1]; MDR ratio at 2.5 μM Cpd): 6.3

Compound: COc1cc(C(=O)C(=O)N(C)[C@@H](Cc2ccccc2)C(=O)O[C@@H]2CCCc3ccc(OCc4ccncc4)cc32)cc(OC)c1OC [Compound 20, 3-Benzyl-2(S)-(methyl-(2-oxo-2-(3,4,5-trimethoxyphenyl)-acetyl)amino) propanoic acid ((7-pyridin-4-ylmethoxy)-1,2,3,4-tetrahydronaphthalen-1(R)-yl) ester]
MDR ratio (IC50 Dox / IC50 Dox+Inhibitor) ([1]; MDR ratio at 0.5 μM Cpd): 3.0
MDR ratio (IC50 Dox / IC50 Dox+Inhibitor) ([1]; MDR ratio at 1.0 μM Cpd): 7.0
MDR ratio (IC50 Dox / IC50 Dox+Inhibitor) ([1]; MDR ratio at 2.5 μM Cpd): 10.5

Fold reversal (IC50 doxorubicin alone / IC50 doxorubicin + MDR inhibitor) ([2]; ratio at 0.5 μM Cpd): 3.5
Fold reversal (IC50 doxorubicin alone / IC50 doxorubicin + MDR inhibitor) ([2]; ratio at 1.0 μM Cpd): 3.2
Fold reversal (IC50 doxorubicin alone / IC50 doxorubicin + MDR inhibitor) ([2]; ratio at 2.5 μM Cpd): 23
Compound: COc1cc(C(=O)C(=O)N(C)[C@@H](Cc2ccccc2)C(=O)O[C@H]2CCCc3ccc(OCc4ccncc4)cc32)cc(OC)c1OC [Compound 21]
MDR ratio (IC50 Dox / IC50 Dox+Inhibitor) ([1]; MDR ratio at 0.5 μM Cpd): 5.4
MDR ratio (IC50 Dox / IC50 Dox+Inhibitor) ([1]; MDR ratio at 1.0 μM Cpd): 6.8
MDR ratio (IC50 Dox / IC50 Dox+Inhibitor) ([1]; MDR ratio at 2.5 μM Cpd): 8.7

Compound: CCCOc1cc2c(c(OCCC)c1C)CC[C@H](Cc1cccnc1)[C@@H]2OC(=O)[C@@H]1CCCCN1C(=O)C(=O)c1cc(OC)c(OC)c(OC)c1 [Compound 29A]
IC50 [1, 3]: 250 nM
IC50 [1, 4]: 190 nM
IC50 [1, 5]: < 50 nM
MDR ratio (IC50 Dox / IC50 Dox+Inhibitor) ([1]; MDR ratio at 0.5 μM Cpd): 1.4
MDR ratio (IC50 Dox / IC50 Dox+Inhibitor) ([1]; MDR ratio at 1.0 μM Cpd): 1.8
MDR ratio (IC50 Dox / IC50 Dox+Inhibitor) ([1]; MDR ratio at 2.5 μM Cpd): > 7.0

Compound: COc1cccc2c1C(=O)c1c(O)c3c(c(O)c1C2=O)C[C@@](O)(C(=O)CO)C[C@@H]3O[C@H]1C[C@H](N)[C@H](O)[C@H](C)O1 [DOX, doxorubicin, reference compound]
IC50 ([2]; Homo sapiens, 72 h, doxorubicin alone, control of the compound of the line, HL60/ADR cells, 3 days, read-out: IC50 DOX Alone): 3500 nM
